From PMC8286840, “Identifying SARS-CoV-2 antiviral compounds by screening for small molecule inhibitors of Nsp3 papain-like protease” (Biochemical Journal, 2021) come the findings set out here.

The target of experiment [1] is T1, SARS-CoV-2 PLpro (nsp3 1564–1878) (Severe acute respiratory syndrome coronavirus 2, UniProt P0DTD1). The experiment can be described thus: biochemical. Also on record: FRET-quenched peptide (Pro3) cleavage by PLpro, 10 min pre-incubation, slope over 20 min, normalised to no-compound control. As to conditions: low concentration screen, read-out: % of control remaining.

In experiment [2] the target is T1, SARS-CoV-2 PLpro (nsp3 1564–1878). The experiment can be described thus: biochemical. The arrangement: FRET-quenched peptide (Pro3) cleavage by PLpro, 10 min pre-incubation, slope over 20 min, normalised to no-compound control. As to conditions: high concentration screen, read-out: % of control remaining.

Molecules are shown by their SMILES. Counter-ions that a name gives are not always drawn. Like-named read-outs stand apart in the source and are kept apart here.

With `COc1cc(CC(=O)O)ccc1O` [4-Hydroxy-3-methoxyphenylacetic acid], the remaining activity at 1.25 µM in experiment [1] (Well no.=750) came to 99.7%. In addition, the remaining activity at 3.75 µM in experiment [2] (Well no.=750) was 97.2%.
For `Cc1cc(C(=O)O)ccc1O` [4-Hydroxy-3-methylbenzoic acid], in experiment [1] (Well no.=6723), the remaining activity at 1.25 µM is 100%. Besides, the remaining activity at 3.75 µM in experiment [2] (Well no.=6723) turned out to be 101%.
`NNC(=O)c1ccc(O)cc1` [4-Hydroxybenzhydrazide]: the remaining activity at 1.25 µM in experiment [1] (Well no.=426) amounted to 97.3%. In experiment [2] (Well no.=426), the remaining activity at 3.75 µM was found to be 97%.
In the case of `O=C(O)c1ccc(O)cc1` [4-Hydroxybenzoic acid], the remaining activity at 1.25 µM in experiment [1] (Well no.=6729) stood at 108%. In addition, the remaining activity at 3.75 µM in experiment [2] (Well no.=6729) was 105%.
As for `OCc1ccc(O)cc1` [4-Hydroxybenzyl alcohol], the remaining activity at 1.25 µM in experiment [1] (Well no.=6876) was 98.2%. Moreover, the remaining activity at 3.75 µM in experiment [2] (Well no.=6876) amounted to 95.1%.
As to `NCCc1ccc(O)cc1` [4-Hydroxyphenethylamine hydrochloride], the remaining activity at 1.25 µM in experiment [1] (Well no.=1237) came out at 101%. Besides, in experiment [2] (Well no.=1237), the remaining activity at 3.75 µM came to 102%.
As for `CC1=C(/C=C/C(C)=C/C=C/C(C)=C/C(=O)Nc2ccc(O)cc2)C(C)(C)CCC1` [4-Hydroxyphenylretinamide], the remaining activity at 1.25 µM in experiment [1] (Well no.=4432) stood at 99%. The remaining activity at 3.75 µM in experiment [2] (Well no.=4432) worked out at 97.3%.
As to `O=C(O)/C=C/c1cnc[nH]1` [4-Imidazoleacrylic acid], the remaining activity at 1.25 µM in experiment [1] (Well no.=1428) was found to be 95.1%. Besides, in experiment [2] (Well no.=1428), the remaining activity at 3.75 µM amounted to 98.1%.
For `OCc1cnc[nH]1` [4-Imidazolemethanol hydrochloride], the remaining activity at 1.25 µM in experiment [1] (Well no.=608) is 97.2%. Besides, the remaining activity at 3.75 µM in experiment [2] (Well no.=608) worked out at 96.7%.
In the case of `Cc1ccc(O)c(O)c1` [4-Methylcatechol], in experiment [1] (Well no.=6739), the remaining activity at 1.25 µM stood at 106%. Moreover, the remaining activity at 3.75 µM in experiment [2] (Well no.=6739) was 108%.
As for `Cc1cn[nH]c1` [4-Methylpyrazole hydrochloride], in experiment [1] (Well no.=776), the remaining activity at 1.25 µM turned out to be 98.4%. Besides, the remaining activity at 3.75 µM in experiment [2] (Well no.=776) was found to be 99.2%.
As for `Cc1cc(=O)oc2cc(O)ccc12` [4-Methylumbelliferone], the remaining activity at 1.25 µM in experiment [1] (Well no.=3342) is 94%. The remaining activity at 3.75 µM in experiment [2] (Well no.=3342) was 91.9%.
As to `CCCCCCCCCCOCCC(=O)O` [4-Oxatetradecanoic acid], the remaining activity at 1.25 µM in experiment [1] (Well no.=4357) came to 101%. For the same compound, the remaining activity at 3.75 µM in experiment [2] (Well no.=4357) came to 107%.
Regarding `N#Cc1c(-c2ccccc2)no[n+]1[O-]` [4-Phenyl-3-furoxancarbonitrile], the remaining activity at 1.25 µM in experiment [1] (Well no.=998) was 97.8%. Further, the remaining activity at 3.75 µM in experiment [2] (Well no.=998) stood at 97.8%.
On to `Nc1nccc(-c2c(-c3ccc(F)cc3)ncn2C2CCCCC2)n1` [4-[1-cyclohexyl-4-(4-fluorophenyl)-1H-imidazol-5-yl]-2-pyrimidinamine dihydrochloride], for which, in experiment [1] (Well no.=5961), the remaining activity at 1.25 µM stood at 102%. Also, the remaining activity at 3.75 µM in experiment [2] (Well no.=5961) is 102%.
On to `C[C@H](c1ccc(F)cc1CCCC(=O)O)N(c1cc(F)ccc1F)S(=O)(=O)c1ccc(Cl)cc1` [4-[2-((1R)-1-{[(4-chlorophenyl)sulfonyl]-2,5-difluoroanilino}ethyl)-5-fluorophenyl]butanoic acid], for which, in experiment [1] (Well no.=5465), the remaining activity at 1.25 µM stood at 98.3%. In addition, the remaining activity at 3.75 µM in experiment [2] (Well no.=5465) came out at 102%.
Take `O=C1CSc2ccccc2N1Cc1cccc(C(F)(F)F)c1` [4-[3-(trifluoromethyl)benzyl]-2H-1,4-benzothiazin-3(4H)-one]: the remaining activity at 1.25 µM in experiment [1] (Well no.=5941) is 104%. In addition, the remaining activity at 3.75 µM in experiment [2] (Well no.=5941) was determined as 103%.
Take `Cc1ccc(C)c(-c2cc(C(F)(F)F)nn2-c2ccc(S(N)(=O)=O)cc2)c1` [4-[5-(2,5-dimethylphenyl)-3-(trifluoromethyl)-1H-pyrazol-1-yl]benzenesulfonamide]: in experiment [1] (Well no.=5924), the remaining activity at 1.25 µM came to 97.9%. In experiment [2] (Well no.=5924), the remaining activity at 3.75 µM turned out to be 89.1%.
Take `CC(=O)N1CCN(C(=O)/C=C/c2ccc(Sc3ccccc3C(C)C)c([N+](=O)[O-])c2)CC1` [4-[(1E)-3-(4-acetyl-1-piperazinyl)-3-oxo-1-propenyl]-2-nitrophenyl 2-isopropylphenyl sulfide]: in experiment [1] (Well no.=5662), the remaining activity at 1.25 µM was found to be 94.9%. The remaining activity at 3.75 µM in experiment [2] (Well no.=5662) is 94.5%.
For `CC1(C)C=Cc2c(ccc3c2OC[C@@H](c2ccc(O)cc2O)C3)O1` [4-[(3R)-8,8-dimethyl-3,4-dihydro-2H,8H-pyrano[2,3-f]chromen-3-yl]-1,3-benzenediol], in experiment [1] (Well no.=5793), the remaining activity at 1.25 µM was found to be 100%. For the same compound, the remaining activity at 3.75 µM in experiment [2] (Well no.=5793) is 104%.
In the case of `COc1cc2ncnc(Nc3ccc(Cl)cc3F)c2cc1OC` [4-[(4'-Chloro-2'-fluoro)phenylamino]-6,7-dimethoxyquinazoline hydrochloride], the remaining activity at 1.25 µM in experiment [1] (Well no.=2540) was determined as 96.4%. The remaining activity at 3.75 µM in experiment [2] (Well no.=2540) stood at 98.1%.
With `CCN(CC)Cc1ccc(C(=O)N(CCc2ccccc2OC)[C@@H]2CCNC2)cc1` [4-[(diethylamino)methyl]-N-[2-(2-methoxyphenyl)ethyl]-N-[(3R)-3-pyrrolidinyl]benzamide dihydrochloride], in experiment [1] (Well no.=5467), the remaining activity at 1.25 µM amounted to 107%. Besides, the remaining activity at 3.75 µM in experiment [2] (Well no.=5467) turned out to be 109%.
For the compound `O=[N+]([O-])c1cc(S(=O)(=O)Nc2ccc(O)c3ccccc23)ccc1Cl` [4-chloro-N-(4-hydroxy-1-naphthyl)-3-nitrobenzenesulfonamide], in experiment [1] (Well no.=5816), the remaining activity at 1.25 µM turned out to be 96.1%. In addition, the remaining activity at 3.75 µM in experiment [2] (Well no.=5816) was 97.4%.
`COc1ccc(C2(C#N)CCC(C(=O)O)CC2)cc1OC1CCCC1` (stereo not shown) [4-cyano-4-[3-(cyclopentyloxy)-4-methoxyphenyl]cyclohexanecarboxylic acid]: in experiment [1] (Well no.=5837), the remaining activity at 1.25 µM turned out to be 101%. Also, the remaining activity at 3.75 µM in experiment [2] (Well no.=5837) was found to be 99.9%.
As for `C[C@@H](c1nc(-c2ccc(C#N)cc2)cs1)[C@](O)(Cn1cncn1)c1ccc(F)cc1F` [4-{2-[(1R,2R)-2-(2,4-difluorophenyl)-2-hydroxy-1-methyl-3-(1H-1,2,4-triazol-1-yl)propyl]-1,3-thiazol-4-yl}benzonitrile], in experiment [1] (Well no.=5644), the remaining activity at 1.25 µM came out at 90.9%. The remaining activity at 3.75 µM in experiment [2] (Well no.=5644) was found to be 92.4%.
Turning to `CCCCCCCOc1cc2c(cc1/C(C)=C/c1ccc(C(=O)O)cc1)C(C)(C)CCS2(=O)=O` [4-{(1E)-2-[7-(heptyloxy)-4,4-dimethyl-1,1-dioxido-3,4-dihydro-2H-thiochromen-6-yl]-1-propenyl}benzoic acid], the remaining activity at 1.25 µM in experiment [1] (Well no.=5553) stood at 103%. Besides, the remaining activity at 3.75 µM in experiment [2] (Well no.=5553) came out at 105%.
Regarding `COc1cc(C(=O)OCCCCNC(=N)N)cc(OC)c1O` [4-{[amino(imino)methyl]amino}butyl 4-hydroxy-3,5-dimethoxybenzoate], in experiment [1] (Well no.=5718), the remaining activity at 1.25 µM was determined as 93.5%. Moreover, the remaining activity at 3.75 µM in experiment [2] (Well no.=5718) stood at 98.3%.
Take `NS(=O)(=O)c1ccc2c(c1)C1C=CCC1C(c1ccc(Br)cc1)N2` (stereo not shown) [4BP-TQS]: the remaining activity at 1.25 µM in experiment [1] (Well no.=5971) was 105%. Moreover, the remaining activity at 3.75 µM in experiment [2] (Well no.=5971) was determined as 105%.
For `Nc1ncnc2c1ncn2[C@@H]1O[C@H](C(=O)NC2CC2)[C@@H](O)[C@H]1O` [5'-(N-Cyclopropyl)carboxamidoadenosine], the remaining activity at 1.25 µM in experiment [1] (Well no.=86) was 99.1%. In addition, the remaining activity at 3.75 µM in experiment [2] (Well no.=86) was 101%.
